Key:
TREK-1 [1] = target: T1, TREK-1 (Homo sapiens, UniProt O95069); test: Heterologous expression of TREK-1, lipoxygenase products; format: cell-based; parameters: expressed in transfected cells
T1 sequence (O95069 1-426): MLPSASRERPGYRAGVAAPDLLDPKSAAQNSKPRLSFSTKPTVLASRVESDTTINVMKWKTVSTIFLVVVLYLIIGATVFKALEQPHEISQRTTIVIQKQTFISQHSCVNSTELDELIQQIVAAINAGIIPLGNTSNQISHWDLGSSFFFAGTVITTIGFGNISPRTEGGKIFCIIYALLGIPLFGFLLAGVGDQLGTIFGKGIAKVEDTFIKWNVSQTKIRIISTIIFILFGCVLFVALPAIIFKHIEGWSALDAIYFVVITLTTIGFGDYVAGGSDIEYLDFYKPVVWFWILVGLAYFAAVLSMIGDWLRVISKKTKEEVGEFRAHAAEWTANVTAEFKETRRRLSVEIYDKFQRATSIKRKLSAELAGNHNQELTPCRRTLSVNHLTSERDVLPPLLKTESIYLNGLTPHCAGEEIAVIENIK
Source text: In heterologous expression studies of one 2PK, TREK-1, it has been observed that a divergence in the sensitivity of the channel to various lipoxygenase products exists. […] Altered channel function may underlie some of the aberrant regulation of cell proliferation characteristic of the carcinoma cells. In addition, it has been observed that Northern analysis of normal prostate tissue show expression of TASK-1, TASK-3 and TREK-1 in prostate (Duprat F et al., […] EMBO J. 16:5464-71; Mu D et al., (2003) Cancer Cell, 3:297-302; Medhurst A D et al., (2001) Brain Res, 86:101-14).

[2] = system: murine ventricular myocytes; test: Arrhythmias induced by PKCε activator peptide in murine ventricular myocytes, rescue by TREK-1 activators; format: cell-based, mouse; conditions: AA 100 nM or tyrphostin 47 50 μM from 1 min after rupture
Method: FIGS. 23A-23D. Activation of TREK-1 can overcome arrhythmias induced by inhibition of TASK-1. Isolated murine ventricular myocytes were studied in current clamp mode and paced at 1 Hz. The cells were studied in regular Tyrode's, pH 7.4. Recordings were begun immediately after rupture and continued for 12-15 min, with the 5.5 min time point illustrated. A PKCε-specific activator peptide (100 nM) was included in the patch pipette, which lead to inhibition of TASK-1 current and repolarization abnormalities (23A and 23B).
FIG. 25. Activation of TREK-1 can overcome arrhythmias induced by inhibition of TASK-1. Isolated murine ventricular myocytes were studied in current clamp mode and paced at 1 Hz. The cells were studied in regular Tyrode's, pH 7.4. Recordings were begun immediately after rupture and continued for 12-15 min. A PKCε-specific activator peptide (100 nM) […] or a scrambled control peptide (100 nM) (25A) was included in the patch pipette. After the activator peptide had induced repolarization abnormalities (25B left panel), a TREK-1 activator, ONO-RS-082 (100 nM) was added to the superfusion.
Isolated murine ventricular myocytes were studied in current clamp mode and paced at 1 Hz. The cells were studied in regular Tyrode's, pH 7.4, and recordings were begun immediately after rupture and continued for 12-15 min, with the 5.5 min timepoint illustrated. As shown in FIGS. 23A and 23B, a PKCε-specific activator peptide (100 nM) was included in the patch pipette which lead to inhibition of TASK-1 current and repolarization abnormalities.

TREK-1 [3] = target: T1, TREK-1; test: Human TREK-1 current in CHO cells (ramp clamp); format: cell-based; parameters: expressed in transfected cells; host or cells: CHO cells; conditions: +50 mV; riluzole 100 nM, anisomycin 3.7 μM, CDC 10 μM, tyrphostins 10 μM
Method: FIG. 18. Structure-activity analysis of activators of human TREK-1 channel. Human TREK-1 was expressed in CHO cells and current was measured during a ramp protocol (−120 to +50 mV in 6 s). The activation of the current at +50 mV in the presence of various putative TREK-1 activators was measured and summarized in the bar graph as % activation over basal. Various endogenous lipids, most related to lipoxygenase metabolites of either arachidonic acid or linoleic acid, were tested (all at 100 nM).
FIG. 21. CHO cells (hTREK-1, hTASK-1) or HEK cells (mTRAAK) were co-transfected with plasmids encoding one of the two pore domain channels and GFP using the GeneJammer reagent. After 48-60 h, the expressed current was measured using a ramp protocol while the cells were perfused with regular Tyrode's solution containing varying concentrations of ONO-RS-082 (range of concentration from 10 nM to 500 μM as noted in FIG. 21) until a steady state was reached. Each cell was exposed to only one concentration of drug. Panel A: TREK-1 current was determined using a ramp clamp, and the percent increase induced by ONO-RS-082 was measured at the most positive imposed voltage (n≧5). The EC50 for activation was around 3 μM and the basal and ONO-activated current densities are noted. Panel B: TASK-1 current was determined using a ramp clamp in Tyrode's solution at pH=8 and the percent increase induced by ONO-RS-082 was measured at the most positive imposed voltage (n≧4). The EC50 was around 8 μM and the basal and ONO-activated current densities are noted. Panel C: TRAAK current was determined using a ramp clamp, and the percent increase induced by ONO-RS-082 was measured at the most positive imposed voltage (n≧4). The EC50 was around 0.9 μM and the basal and ONO-activated current densities are noted.
Subsequently, the structure-activity analysis of activators of human TREK-1 channel was determined. […] The activation of the current at +50 mV in the presence of various putative TREK-1 activators was measured and summarized in the bar graph as % activation over basal.
CHO cells were transfected with a plasmid encoding human TREK-1 and the current was studied by patch clamp. The current-voltage relation was determined using a ramp protocol that went from −130 mV to +40 mV in 6 s (after correction for the junction potential). […] This is typical of 7 cells.

murine TASK-1 = test: TASK-1 current expressed in CHO cells (whole-cell ramp clamp); format: cell-based, mouse; conditions: peptide 100 nM in pipette, PMA 100 nM; for effect of peptide on C-PAF and PMA inhibition of TASK-1 current: C-PAF 185 nM
Method: The TASK-1 clone (provided by Professor Y. Kurachi, Osaka University) was co-transfected in CHO cells with CD8 plasmid using Lipofectamine Plus (Invitrogen) according to the manufacturer's instructions. 48 h later cells were transferred to the electrophysiology chamber and anti-CD8 coated beads (Dynal Biotech) were added to identify CD8 expressing cells. Expressing cells were voltage clamped using a ramp clamp (see below). CHO cells were used in these experiments, in part, because they express endogenous PAFR.
Chinese hamster ovary cells (CHO) were grown in F-12 medium supplemented with 10% fetal bovine serum. Twenty-four hours prior to transfection, cells were seeded into 6 well plates at 80-90% of confluence. Transfections were carried out with the GeneJammer transfection reagent (Stratagene) according to the manufacturer's instructions. Briefly, cells were washed with PBS and their medium replaced with supplemented F-12 medium (900 μl/well). For each well, GeneJammer (6 μl) was incubated with Opti-MEM (90 μl) followed by the addition of DNA (1 μg). This mixture was then added to the wells and 3 h later an additional 2 ml of supplemented F-12 medium was added. After incubating overnight, the cells were washed and their medium replaced.
Cells were either co-transfected with pCMV-TASK1 together with pEGFP-C1 (1 μg total, 3:1) or transfected with […] or T381A-pTIE (1 μg). 48 h after the transfection the cells were checked under the microscope for green fluorescence. Approximately 20% of the cells were positive for EGFP and these were then used for patch-clamp experiments. Due to the culture-to-culture variability in the expression of TASK-1 current, most comparisons were made on matched controls from the same transfection. Summary results were then obtained by pooling data from several different culture preparations.
(§1) The myocyte suspension or the coverslip with CHO cells was placed into a perfusion chamber, mounted on the stage of an inverted microscope. Unless otherwise indicated, CHO cells were superfused at room temperature with standard external Tyrode's buffer, containing (mM): NaCl, 140; KCl, 5.4; CaCl2, 1; MgCl2, 1; HEPES, 5; glucose, 10; adjusted to pH 7.4. Recordings were begun after the current reached a stable baseline (usually 3 to 4 min after initial cell rupture). In myocytes, TASK-1 current is small and exists in the presence of numerous larger K^+ currents. In order to increase the inward component of TASK-1 current and to block other potassium currents in myocytes, a modified high K^+ external solution (modified Tyrode's) was used to reduce outward rectification of TASK-1 current. The composition of this solution-was (in mM): NaCl, 100; KCl, 50; CaCl2, 1; MgCl2, 1; HEPES, 5; glucose, 10; tetraethylammonium (TEA), 1; CsCl, 5; adjusted to pH 7.4. Membrane potential and current were measured in the whole cell configuration using borosilicate glass pipettes with a tip resistance between […] and filled with a pipette solution containing (mM): aspartic acid, 130; KOH, 146; NaCl, 10; CaCl2, 2; EGTA, 5; HEPES, 10; MGATP, 2; pH 7.2. The stock solutions of C-PAF and of the PKC inhibitor, bisindolylmaleimide (BIM-I; Calbiochem), were prepared in water and diluted to the final concentrations in Tyrode's or modified Tyrode's, as appropriate. The PKC activator, PMA, was prepared in DMSO and then diluted in Tyrode's. […] Myocytes treated with the peptides were monitored continuously beginning immediately after rupture to detect the occurrence of any arrhythmias during dialysis of the peptide. Application of C-PAF to cells treated with the inhibitor peptide was started after the peptide had been permitted to dialyse into the cell (8-10 min after rupture for CHO or 10-12 min after rupture for myocytes).
The current and the voltage protocols were generated using Clampex 8.0 software applied by means of an Axopatch 200-B and a Digidata 1200 interface (Axon Instruments). […]

TASK-1 = test: C-PAF-sensitive TASK-1 current in mouse ventricular myocytes dialyzed with PKCε peptides; format: cell-based; conditions: for effect of peptide on ability of C-PAF to reduce TASK-1 current: held at −10 mV, peptide 100 nM in pipette, C-PAF 185 nM
Method: (§2) Mouse ventricular myocytes were isolated using a retrograde coronary perfusion method previously published (Kuznetsov V et al. (1995) Circ Res 76: 40-52). All the experiments were carried out according to the guidelines issued by the IACUC of Columbia University. Adult mice 2 or 3 months old, were anaesthetized with a xylazine and ketamine mix and heparinized, the heart was quickly removed and the ascending aorta was connected to the outlet of a Langendorff column and perfused with 20-25 ml of a buffer solution (37° C.) containing (mM):NaCl, 112; KCl, 5.4; NaHCO3, 4.2; MgCl2, 1.6; HEPES, 20; glucose, 5.4; NaH2PO4, 1.7; taurine, 10; L-glutamine, 4.1; MEM amino acids solution, 2%; MEM vitamin solution, 1%; adjusted to pH 7.4, and equilibrated with 100% O2. Next, the heart was perfused with an enzyme solution containing collagenase (0.2 mg/ml; Worthington Type II) and trypsin (0.04 mg/ml) at 35° C. for 10-12 min. After this perfusion, the atria were removed and the ventricles minced and transferred to a 50 ml flask with an enzyme solution containing collagenase (0.45 mg/ml), trypsin (0.08 mg/ml), Ca^2+ (0.75 mM) and bovine serum albumin (BSA; 4.8 mg/ml). The flask was shaken vigorously for 5-10 min at 32° C. before the supernatant was removed and the cells were collected by centrifugation, this operation was repeated two or three times and additional disaggregated cells were collected. After centrifugation, the myocytes were resuspended in the buffer solution containing Ca^2+ (0.75 mM) and BSA and stored at room temperature until use. Rod-shaped, Ca^2+-tolerant myocytes, obtained with this procedure, were used within 6 h of dissociation. Measurements were performed only on quiescent myocytes with clear striations
The myocyte suspension or the coverslip with CHO cells was placed into a perfusion chamber, mounted on the stage of an inverted microscope. Unless otherwise indicated, CHO cells were superfused at room temperature with standard external Tyrode's buffer, containing (mM): NaCl, 140; KCl, 5.4; CaCl2, 1; MgCl2, 1; HEPES, 5; glucose, 10; adjusted to pH 7.4. Recordings were begun after the current reached a stable baseline (usually 3 to 4 min after initial cell rupture). In myocytes, TASK-1 current is small and exists in the presence of numerous larger K^+ currents. […] Membrane potential and current were measured in the whole cell configuration using borosilicate glass pipettes with a tip resistance between […] and filled with a pipette solution containing (mM): aspartic acid, 130; KOH, 146; NaCl, 10; CaCl2, 2; EGTA, 5; HEPES, 10; MGATP, 2; pH 7.2. […] Myocytes treated with the peptides were monitored continuously beginning immediately after rupture to detect the occurrence of any arrhythmias during dialysis of the peptide. […]

[4] = system: mouse ventricular myocytes; test: Repolarization abnormalities in mouse ventricular myocytes paced at 1 Hz with PKCε peptides; format: cell-based
Method: as §2, §1
The current and the voltage protocols were generated using Clampex 8.0 software applied by means of an Axopatch 200-B and a Digidata 1200 interface (Axon Instruments). In current clamp mode, for recording action potentials, the signals were filtered at 1 KHz (low pass Bessel filter) and acquired at a sampling rate of 5 KHz. […]

Compound: CCCCC[C@H](O)/C=C/C=C\CCCCCCCC(=O)O [13-HODE, 13(S)-hydroxyoctadecadienoic acid]
- effect on TREK-1 current (TREK-1 [1]): reduces current

Compound: CCCCCC(/C=C/C=C\C/C=C\C/C=C\CCCC(=O)O)OO (stereo not shown) [15-HPETE]
- effect on TREK-1 current (TREK-1 [1]): increases TREK-1 current

Compound: CCCCC/C=C\C/C=C\C/C=C\C/C=C\CCCC(=O)O [arachidonic acid]
- arrhythmias induced by PKCε activator peptide during drug superfusion [2]: fewer arrhythmias

Compound: Nc1nc2ccc(OC(F)(F)F)cc2s1 [riluzole]
- type of activation of human TREK-1 current (TREK-1 [3]): slow-onset activators

Compound: N#C/C(=C\c1ccc(O)c(O)c1)C(N)=S [tyrphostin 47]
- arrhythmias induced by PKCε activator peptide during drug superfusion [2]: fewer arrhythmias

Compound: EAVSLKPT [PKCε-inhibitor peptide]
- effect of peptide on PMA-sensitive current (murine TASK-1): completely blocked
- effect of peptide on C-PAF and PMA inhibition of TASK-1 current (murine TASK-1): blocked the effect
- effect of peptide on ability of C-PAF to reduce TASK-1 current (TASK-1): significantly inhibited
- C-PAF-sensitive current in the presence of peptide (TASK-1; ramp −50 to +30 mV, modified Tyrode's, inhibitor peptide 100 nM): abolished
- repolarization abnormalities ([4]; C-PAF, PKCε-specific inhibitor peptide 100 nM in pipette): completely absent

Compound: LSETKPAV [scrambled peptide]
- effect of peptide on C-PAF and PMA inhibition of TASK-1 current (murine TASK-1): no effect
- effect of peptide on ability of C-PAF to reduce TASK-1 current (TASK-1): had no effect
- cells with repolarization abnormalities / abnormal automaticity ([4]; peptide in pipette, no added C-PAF): 2 of 10

From patent US8097650B2, “Method of treating a condition associated with phosphorylation of TASK-1” (The Trustees of Columbia University In The City of New York, priority 2005, dated 2012)
